Measurements reported in US20250296967A1 (Ferring B.V., priority 2006, published 2025).

What was measured:
B2A2-K-NS [1] = test: Binding of B2A2-K-NS to ceramic granules (BCA / micro BCA, subtraction method); format: physicochemical; conditions: high B2A2-K-NS coating concentrations, as described in Example 2
Description: Methods. 1.5 cc of granules were added to 1.8 mL of 0.9% saline or of peptide solution in 0.9% saline having a concentration of 35.9, 119.8, 359.3 μg/ml. The granule-peptide solutions were swirled vigorously for 15 seconds every 5 minutes for 20 minutes. After swirling, the supernatant was removed, filtered through 0.22 μm filter (low protein binding durapore (PVDF)) and assayed via Bicinchoninic Acid (BCA) or micro BCA assay (Pierce, Rockport, IL) for peptide content. The amount of peptide bound to the particles was obtained by subtraction method (the total peptide minus peptide present in the supernatant is equal to the amount of peptide bound on particulate materials.). The study was performed on two separate days and the results averaged below: […]

B2A2-K-NS [2] = test: Release of B2A2-K-NS from peptide bound BRGs (ELISA); format: physicochemical; conditions: 0.9% saline
Description: The third step was to measure the amount of peptide released using the same ELISA assay. Briefly, the peptide bound BRGs were placed in 1 ml of 0.9% saline and the amount of peptide released was measured over a 72 hours period.

[3] = biological target: T1, Type I, bovine-derived, dermal collagen sheets (Bos taurus, UniProt P02453+P02465); test: Binding of B2A2-K-NS to collagen sheets; format: physicochemical; conditions: 1,072 μg B2A2-K-NS/ml collagen sheet in 0.9% saline
T1 construct: Type I, bovine-derived, dermal collagen sheets; from tissue; host or cells: bovine dermis
Description: Type I, bovine-derived, dermal collagen sheets that were crosslinked with DHT and lyophilized were incubated with 1,072 μg B2A2-K-NS/ml collagen sheet in 0.9% saline solution. The binding efficiency was 61%, which was far lower than the binding efficiency on the Ca^2+ containing granules at high B2A2-K-NS coating concentrations (87-95% as described in Example 2). Lower binding efficiencies may be attributed to lower surface area as compared to that of the granules.

[4] = biological target: T1, Type I, bovine-derived, dermal collagen sheets; test: Release of B2A2-K-NS from collagen (BCA); format: physicochemical; conditions: 0.9% saline
Description: To initiate release, a vial containing collagen coated with B2A2-K-NS was replenished with 2 ml of 0.9% saline and placed on the rocking platform. After specified time interval, the supernatant was removed, filtered, and collected. A BCA assay was utilized to determine peptide concentrations. […] The BSA standard curve was generated by placing BSA in supernatant from the collagen sponge (without peptide).

[5] = Release of B2A2-K-NS from ceramic granules (BCA, cumulative release, FIG. 1); format: physicochemical; conditions: first 4 hour period, 0.9% saline
Description: Methods: After binding the peptide to the granules as described in Example 2, each of the vials containing particulate materials was replenished with 1.8 mL of 0.9% saline and placed on the rocking platform. After specified time interval, the supernatant was removed, filtered, and collected over a period of 43 hrs. Based on the amount of the peptide present in the supernatant, the amount of peptide bound to or released from the particles as was calculated. The study was performed on two separate days with the averages plotted showing cumulative peptide released vs. time (see graph in FIG. 1) (Note: the HA plus silicon was only performed at high dose). A BCA assay was utilized to determine peptide concentrations. The 60:40 granule was pH 8.8.
Referring now to FIG. 1, the release characteristics of specified materials tested. There was a burst of peptide released over a 4 hour period (supernatant was assessed hourly for the first four hours). At high loading doses (431 μg peptide/cc granule), the burst phase accounted for 12-22% of the total amount of peptide loaded. For intermediate loading doses (144 μg peptide/cc granule), the burst phase accounted for 25-35% of the total amount loaded. For low doses (43 μg peptide/cc granule), the burst phase accounted for 48-59% of the total amount loaded. Following the burst period, there was a slower, sustained release period.
The diamond on the graph represents 60% HAP and 40% TCP (high dose). The square represents 60% HAP and 40% TCP (medium dose). The triangle represents 20% HAP and 80% TCP (high dose). The X represents 20% HAP and 80% TCP (medium dose). The star represents 100% HAP plus Si (high dose). The filled-in circle represents 60% HAP and 40% TCP (low dose), and the plus sign represents 20% HAP and 80% TCP (low dose).

B2A2-K-NS [6] = test: Binding of B2A2-K-NS to commercially available bone replacement grafts (ELISA, difference method); format: physicochemical; conditions: BRGs in 0.9% saline
Description: The next step was to determine whether the peptide was able to bind these BRGs. B2A2-K-NS (approximately 20 μg/ml) was incubated in one ml of 0.9% saline solution with 0.17 gram BRGs for 15 minutes. An ELISA assay was performed both on peptide solution without BRGs and the supernatant from the peptide+BRG. The difference between the peptide only reading and the supernatant from the peptide+BRG provided the amount of peptide bound.
The binding definitions are defined as follows: None is no detectable binding. High is binding>20 μg peptide/cc graft material. Intermediate is less than 20 μg peptide/cc graft material, but above non-detectable binding.

ectopic bone = test: Ectopic bone induction by B2A2-K-NS coated granules with exogenous recombinant BMP-2, subcutaneous implant in rats; format: in vivo
Description: Sterile ceramic granules (Berkeley Advanced Biomaterials, Inc.; 60:40 (HA:TCP)) where coated by immersing them for 30 minutes in a solution containing B2A2-K-NS (0-, 2.5-, 10-, 25 μg/ml). Thereafter, the solution was removed by aspiration and the granules allowed to air dry. The coated granules were then placed in sterile gelatin capsules. […] The capsules were placed subcutaneously in young adult rats on the flanks in pre-prepared pouches and the surgical site closed with surgical clips. After 30 days, the implants were surgically removed, weighed, and palpated to assess hardness. The explants were then fixed with multiple changes into 70% ethanol.

[7] = test system: mouse pluripotent cell lines C2C12; test: Alkaline phosphatase assay of B2A2-K-NS released from 20:80 granules, with or without BMP-2; format: cell-based; conditions: peptide released from 20:80 granules, 1.25- to 10 μg/ml, BMP-2 100 ng/ml, C2C12 cells, 1 day
Description: Methods: (A) Peptide was collected over a six hour period after release from 20:80 (as described in Example 3). The supernatants from all time points were mixed, frozen, and lyophilized for 48 hours. The peptide pellet was reconstituted in 1.5 ml saline and a BCA assay performed to determine peptide concentration.
(B) Alkaline phosphatase assays were performed using mouse pluripotent cell lines C2C12. Cells were plated in 96-well (1×10^4/well) plates in DMEM/F-12 Ham's containing 15% FBS, 1% L-gln, 1% NaPyr, and 1% gentamycin and allowed 24 hours to attach at 37 C, 5% CO2, 90% humidity. […] After 1 day, ALP activity was determined.

[8] = Comparative release of synthetic growth factor analogues from a single scaffold (BCA, FIG. 5); format: physicochemical; conditions: 100 μg peptide/cc granule, 0.9% saline
Description: Methods for assaying peptide release from a single scaffold are as follows: 1 cc of granules were added to 1.2 mL of 0.9% saline or of peptide solution in 0.9% saline having a concentration of 100 μg B2A2-K-NS, LA2, or F2A4/cc granule. The granule-peptide solutions were swirled vigorously for 15 seconds every 5 minutes for 20 minutes. After swirling, the supernatant was removed and assayed via BCA or micro BCA assay for peptide content. The BCA value for each peptide was corrected relative to the BSA standard curve.
Referring now to FIG. 5, the shape of the release curve is similar for all three peptides (B2A2-K-NS (diamonds), LA2 (squares), and F2A4-K-NS (triangles)). However, the magnitude of the release is markedly different.

T1 sequence (P02453 162-1217 limits assumed): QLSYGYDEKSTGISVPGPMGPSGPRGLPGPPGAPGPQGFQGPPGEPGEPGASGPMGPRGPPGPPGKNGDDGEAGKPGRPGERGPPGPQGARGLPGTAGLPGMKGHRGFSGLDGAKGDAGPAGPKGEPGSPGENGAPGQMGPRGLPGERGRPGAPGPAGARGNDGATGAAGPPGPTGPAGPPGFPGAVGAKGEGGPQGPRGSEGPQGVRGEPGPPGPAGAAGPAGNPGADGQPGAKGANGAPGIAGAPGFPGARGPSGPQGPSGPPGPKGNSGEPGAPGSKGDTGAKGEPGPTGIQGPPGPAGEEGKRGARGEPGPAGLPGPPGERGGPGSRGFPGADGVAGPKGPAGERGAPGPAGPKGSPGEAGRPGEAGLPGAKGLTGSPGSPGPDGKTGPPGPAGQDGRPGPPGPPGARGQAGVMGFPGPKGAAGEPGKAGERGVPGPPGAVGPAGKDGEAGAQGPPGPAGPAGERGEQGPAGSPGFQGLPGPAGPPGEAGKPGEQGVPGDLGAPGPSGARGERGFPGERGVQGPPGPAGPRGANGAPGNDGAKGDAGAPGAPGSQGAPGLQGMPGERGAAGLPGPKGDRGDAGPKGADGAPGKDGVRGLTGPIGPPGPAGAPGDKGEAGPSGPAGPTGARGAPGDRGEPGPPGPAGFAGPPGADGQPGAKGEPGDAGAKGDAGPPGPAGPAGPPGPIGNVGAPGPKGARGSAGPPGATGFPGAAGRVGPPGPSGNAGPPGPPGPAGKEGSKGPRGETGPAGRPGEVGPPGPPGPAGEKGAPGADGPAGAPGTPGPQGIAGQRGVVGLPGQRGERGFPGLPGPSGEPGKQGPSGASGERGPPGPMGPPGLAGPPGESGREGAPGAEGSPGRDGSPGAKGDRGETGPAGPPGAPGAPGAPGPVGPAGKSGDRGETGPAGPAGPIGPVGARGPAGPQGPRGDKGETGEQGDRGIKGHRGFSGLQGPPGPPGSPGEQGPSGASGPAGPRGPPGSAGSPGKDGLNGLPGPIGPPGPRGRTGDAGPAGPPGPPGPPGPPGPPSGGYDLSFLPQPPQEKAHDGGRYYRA
T1 sequence (P02465 80-1117 limits assumed): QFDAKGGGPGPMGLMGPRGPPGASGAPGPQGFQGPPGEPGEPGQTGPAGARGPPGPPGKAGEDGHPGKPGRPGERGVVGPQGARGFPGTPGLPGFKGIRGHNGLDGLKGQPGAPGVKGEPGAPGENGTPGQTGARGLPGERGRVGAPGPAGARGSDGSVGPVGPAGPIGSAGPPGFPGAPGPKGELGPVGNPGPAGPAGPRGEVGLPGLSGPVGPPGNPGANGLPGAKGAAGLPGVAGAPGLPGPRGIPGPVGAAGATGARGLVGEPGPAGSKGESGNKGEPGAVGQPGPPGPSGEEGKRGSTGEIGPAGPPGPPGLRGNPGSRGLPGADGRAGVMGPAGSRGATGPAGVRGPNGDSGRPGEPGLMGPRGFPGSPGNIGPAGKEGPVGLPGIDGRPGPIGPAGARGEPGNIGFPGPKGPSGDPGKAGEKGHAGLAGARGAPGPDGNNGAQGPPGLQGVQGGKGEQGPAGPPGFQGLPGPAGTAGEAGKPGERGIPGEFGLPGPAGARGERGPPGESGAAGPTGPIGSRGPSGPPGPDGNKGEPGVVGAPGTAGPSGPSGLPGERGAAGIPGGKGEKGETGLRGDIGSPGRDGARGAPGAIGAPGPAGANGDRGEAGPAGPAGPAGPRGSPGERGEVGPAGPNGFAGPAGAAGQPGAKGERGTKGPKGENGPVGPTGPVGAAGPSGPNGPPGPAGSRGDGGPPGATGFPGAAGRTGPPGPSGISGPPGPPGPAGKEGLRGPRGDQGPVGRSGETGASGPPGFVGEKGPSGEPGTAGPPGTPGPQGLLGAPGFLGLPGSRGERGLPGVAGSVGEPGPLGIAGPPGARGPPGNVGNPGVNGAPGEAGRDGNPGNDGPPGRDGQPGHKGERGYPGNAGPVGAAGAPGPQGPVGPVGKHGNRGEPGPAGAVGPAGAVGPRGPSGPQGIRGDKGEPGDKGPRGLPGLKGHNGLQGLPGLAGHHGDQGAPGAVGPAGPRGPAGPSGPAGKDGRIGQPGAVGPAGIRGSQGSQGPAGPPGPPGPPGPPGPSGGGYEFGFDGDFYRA

Substance | binding efficiency on the Ca2+ containing granules (B2A2-K-NS [1]) | pH range of materials from which the peptide could release (B2A2-K-NS [2]) | binding efficiency [3] [%] | cumulative amount of peptide released ([4]; after 1 hour) [%] | cumulative amount of peptide released ([4]; after 2 hours) [%] | cumulative amount of peptide released ([4]; after 3 hours) [%] | cumulative amount of peptide released ([4]; after 4 hours) [%] | burst phase release, share of the total amount of peptide loaded ([5]; high loading doses (431 μg peptide/cc granule)) | burst phase release, share of the total amount loaded ([5]; intermediate loading doses (144 μg peptide/cc granule)) | burst phase release, share of the total amount loaded ([5]; low doses (43 μg peptide/cc granule)) | pH range of BRGs to which the peptide was found to bind (B2A2-K-NS [6]) | implants judged palpably hardened (ectopic bone; coated with 2.5 μg B2A2-K-NS, 1 μg recombinant BMP-2, rats, 30 days) | implants judged palpably hardened (ectopic bone; coated with 10 μg B2A2-K-NS, 1 μg recombinant BMP-2, rats, 30 days) | implants judged palpably hardened (ectopic bone; coated with 25 ug B2A2-K-NS, 1 μg recombinant BMP-2, rats, 30 days) | implants with histologically identifiable new bone (ectopic bone; coated with 25 ug B2A2-K-NS, 1 μg recombinant BMP-2, rats, 30 days, hematoxylin and eosin) | explant weight versus controls (no BMP-2, no B2A2-K-NS) (ectopic bone; rats, subcutaneous, 60:40 (HA:TCP) granules coated with 25 μg B2A2-K-NS, 1 μg recombinant BMP-2, 30 days) | explant weight versus those containing BMP-2 but no B2A2-K-NS (ectopic bone; rats, subcutaneous, granules coated with 25 μg B2A2-K-NS, 1 μg recombinant BMP-2, 30 days) | effect on BMP-2 activity (ALP activity) [7] | release of peptide from the scaffold (relative magnitude) [8]
AISMLYLDENEKVVLKK(AISMLYLDENEKVVLK)HxHxHxRKRLDRIARNH2 [B2A2-K-NS] | 87-95% | 6.3-10 | 61 | 11 | 19 | 23 | 28 | 12-22% | 25-35% | 48-59% | 3.7-10.5 | 3/4 | 3/4 | 4/4 | 4/4 | significantly higher weight | tended (p=0.11) to have a higher weight | increased BMP-2 activity | –
YRSRKYSSWYVALKRK(H-YRSRKYSSWYVALKR)HxHxHxRKRLDRIAR-amide [F2A4] | – | – | – | – | – | – | – | – | – | – | – | – | – | – | – | – | – | – | does not release readily
SIKVAVAAK(H-SIKVAVAA)xHxHxRKRKLERIAR-amide [LA2] | – | – | – | – | – | – | – | – | – | – | – | – | – | – | – | – | – | – | most rapidly released
